These results are taken from US20210087159A1, “TETRAHYDROCANNABINOLIC- CA[…] DERIVATIVES AND USES THEREOF” (AL&AM […]., priority 2018, published 2021).

Holding throughout (type): cell-based
For assay [1], the system named is human peripheral blood mononuclear cells (PBMCs). In words: Cell proliferation of LPS-challenged PBMCs by CellTiter-Glo (CTG). The conditions noted are these: for effect on cell proliferation: LPS-treated human PBMCs, CTG; for CTG signal: human PBMCs, 72 h (LPS control 84.50). The source says:
This study was aimed to test the effect of 12 compounds (THCA, Ia1, Ia5, Ia6, Ia9, Ia11, Ia15, Ia17, Ia24, Ia25, Ia27, and Ia28) on human peripheral blood mononuclear cells (PBMCs) challenged by lipopolysaccharide (LPS) through monitoring multiple inflammatory endpoints.
Blood samples were collected from healthy volunteers according to protocols that have been reviewed and approved by the Chempartner Institutional Ethic Committee (IEC) upon signing an Informed Consent Form (ICF).
Fresh PBMCs were isolated and seeded into 96-well plate, and diluted solutions of the tested compounds and 0.1 μg/mL LPS were then added (in triplicates). To serve as control, 3 wells with PBMCs only, 3 wells with 0.1 μg/mL LPS, and 2 wells with 1 μg/mL dexamethasone (Dex) and 0.1 μg/mL LPS were included. After 72 hours incubation, supernatant was collected for tumor necrosis factor-α (TNF-α) measurement by enzyme-linked immunosorbent assay (ELISA), and cell pellets were harvested for cell proliferation measurement by CellTiter-Glo® Luminescent Cell Viability Assay (CTG).
The human blood sample from an individual donor was diluted by the same volume of sterile phosphate buffered solution (PBS) and mixed sufficiently by gentle shake. 15 mL Lymphoprep™ medium was transferred into a new 50 mL centrifuge tube, and the diluted blood sample (30 mL) was then carefully added onto the surface of the medium, which consequently contained Ficoll 400 and blood in a volume ratio of 1:2. Four interfaces were observed after centrifugation, which are, from top to bottom, layers of plasma, mononuclear cells, Ficoll medium, and red blood cells (RBCs). Plasma was absorbed, and mononuclear cells were then transferred into another new sterile centrifuge tube. Then, sterile PBS buffer was added into the collected PBMCs for washing, at a volume ratio of 3:1. PBMCs were washed with 5-10 mL PBS twice before cell counting with cytometer. Cells were centrifuged at 350×g, for 10 min, at 20° C. with the acceleration (5) and deceleration (5) settings during the centrifugation. The cells were resuspended with RPMI 1640 complete medium (containing 10% FBS) for assay, and the density was adjusted with RPMI 1640 complete medium to the final concentration of 2E6 cells/mL. Cells suspension of the PBMCs (100 μL/well) were seeded into 96-well plate (#3903).
Diluted solutions of the tested compounds were prepared with RPMI 1640 complete medium according to the following layout. Compounds were prepared at 5-fold of concentration (50 μM), and then were diluted to the working concentration of 10 μM with RPMI 1640 complete medium and made 10-fold serially dilution (2 points). The diluted compounds (50 μL/well) were added to the indicated wells, and the plate was incubated at 37° C., 5% CO2, for 72 h.
LPS (0.1 μg/mL, 100 μL) was added into each well. Dex (1 μg/mL) was included as a positive control. Plate was incubated at 37° C., 5% CO2 for 72 h. Supernatant was collected to measure TNF-α by ELISA. Cell proliferation was detected by CTG.
Background: ATP-based viability assays read luminescence as a measure of living cells.

In a further assay the test system is A549 (lung carcinoma). In words: XTT cytotoxicity assay (Pharma Seed). The following applies: Homo sapiens, 48 hours, 20, 10, 5, 1 μM, assay medium 1% FBS. On the procedure: (§1) In this study, the cytotoxicity of several compounds of the present invention on lung and pancreatic cancer cell was evaluated.
A549 (lung carcinoma) culture medium: F12-K, supplemented with 10% FBS (heat inactivated), 2 mM L-glutamine, and 1% of Pen/Strep/Amp solution. A549 assay medium: F12-K, supplemented with 1% FBS (heat inactivated), 2 mM L-glutamine, and 1% of Pen/Strep/Amp solution.
(§2) Each of the tested compounds was dissolved in DMSO to reach a stock concentration of 20 mM (and stored at −15° C.-−25° C. until use. Compound Ia28 (MW 484 g/mol, 3.05 mg total) was dissolved in 0.315 mL; compound Ia9 (MW 484 g/mol, 2.33 mg total) was dissolved in 0.241 mL; and compound Ia6 (MW 428.3 g/mol, 2.25 mg total) was dissolved in 0.262 mL.
(§3) On the day of incubation with the cells, each compound was diluted in DMSO to reach 2 mM, 1 mM, 0.5 mM, 0.1 mM stock concentrations (1:10, 1:20, 1:40 and 1:200), and each of these stocks was further diluted in assay medium 1:100 for final concentration of 20 μM, 10 μM, 5 μM, and 1 μM.
(§4) Part 1—cell number calibration. PANC-1 and A549 cells were each plated in a 96 well plate, in their culture medium, at various cell concentrations per well, in triplicates, and were allowed to attach for 24 hours. Thereafter, culture medium was discarded, assay medium was added, and the cells were incubated for additional 72 hours. Finally, assay medium was discarded, and fresh culture medium was added to the cells along with 50 μl XTT reagent. The OD was measured every two hours for 6 hours (three times).
(§5) The highest cells number/well were chosen for part 2 as follows: PANC-1 at 7,500 cells per well, A549 at 5000 cells per well.
Part 2—cells incubation with tested compounds. PANC-1 and A549 cells were plated in a 96 well plate, in their culture medium, at the optimal cell concentration according to the results from the previous section and were allowed to attach for 24 hours. […] The OD was measured at the optimal time point according to the results in the previous section.
A general note: Formazan colour is commonly taken as a measure of viable cells.

The test system of assay [2] is PANC-1 (pancreatic carcinoma). In words: XTT cytotoxicity assay (Pharma Seed). The conditions noted are these: Homo sapiens, 48 hours, 20, 10, 5, 1 μM, assay medium 1% FBS. On the procedure:
as §1
PANC-1 (pancreatic carcinoma) culture medium: DMEM (High Glucose), supplemented with 10% FBS (heat inactivated), 2 mM L-glutamine, and 1% of Pen/Strep/Amp solution. PANC-1 assay medium: DMEM (High Glucose), supplemented with 1% FBS (heat inactivated), 2 mM L-glutamine, and 1% of Pen/Strep/Amp solution.
as §2, §3, §4, §5
Part 2—cells incubation with tested compounds. PANC-1 and A549 cells were plated in a 96 well plate, in their culture medium, at the optimal cell concentration according to the results from the previous section and were allowed to attach for 24 hours. Thereafter, the culture medium was discarded, and fresh assay medium was added to the cells, supplemented with elevating compound concentrations. Triton 0.1% was used as positive control for cell death. The cells were incubated for another 48 hours (TBD upon microscopic observation). Finally, fresh culture medium was added to the cells along with 50 μl XTT reagent. The OD was measured at the optimal time point according to the results in the previous section.

One may read the IC50 as the concentration needed to halve the response being measured. Higher therefore signals lower potency.

With `CCCCCc1cc2c(c(O)c1C(=O)NCCN(C)C)[C@@H]1C=C(C)CC[C@H]1C(C)(C)O2` [Ia6, (6aR,0aR)—N-(2-(dimethylamino)ethyl)-1-hydroxy-6,6,9-trimethyl-3-pentyl-6a,7,8,10a-tetrahydro-6H-benzo[c]chromene-2-carboxamide], the “effect on cell proliferation” value in assay [1] is given as “inhibition of cell proliferation”. Besides, the CTG signal in assay [1] (compound 1 μM + 0.1 μg/mL LPS) was 80.67 10^4; in assay [1] (compound 10 μM + 0.1 μg/mL LPS), 37.67 10^4. In addition, the 50% inhibitory concentration (IC50) in the assay with A549 (lung carcinoma) amounted to 5.2 µM; in assay [2] it was 9.4 µM.
As for `CCCCCc1cc2c(c(O)c1C(=O)NCCCN1CCOCC1)[C@@H]1C=C(C)CC[C@H]1C(C)(C)O2` [Ia9, (6aR,0aR)-1-hydroxy-6,6,9-trimethyl-N-(3-morpholinopropyl)-3-pentyl-6a,7,8,10a-tetrahydro-6H-benzo[c]chromene-2-carboxamide], in assay [1], the “effect on cell proliferation” value is “inhibition of cell proliferation”. The CTG signal in assay [1] (compound 1 μM + 0.1 μg/mL LPS) is reported as 77.55 10^4; in assay [1] (compound 10 μM + 0.1 μg/mL LPS), 23.31 10^4. Besides, the IC50 with A549 (lung carcinoma) amounted to 7.8 µM; in assay [2], 11.4 µM.
On to `C=C(C)[C@@H]1CCC(C)=C[C@H]1c1c(O)cc(CCCCC)c(C(=O)NCCCN2CCOCC2)c1O` [Ia28, (1′R,2′R)-2,6-dihydroxy-5′-methyl-N-(3-morpholinopropyl)-4-pentyl-2′-(prop-1-en-2-yl)-1′,2′,3′,4′-tetrahydro-[1,1′-biphenyl]-3-carboxamide], for which the figures for the CTG signal in assay [1] (compound 1 μM + 0.1 μg/mL LPS) and in assay [1] (compound 10 μM + 0.1 μg/mL LPS) were 76.24 10^4 and 72.61 10^4, respectively. Also, the results for the IC50 (in the assay on A549 (lung carcinoma); in assay [2]) were 11 µM and 19 µM, respectively.
For the compound `CCCCCc1cc2c(c(O)c1C(=O)O)[C@@H]1C=C(C)CC[C@H]1C(C)(C)O2` [THCA, tetrahydrocannabinolic acid, reference compound], the CTG signal in assay [1] (compound 1 μM + 0.1 μg/mL LPS) is recorded as 74.89 10^4; in assay [1] (compound 10 μM + 0.1 μg/mL LPS) it was 75.54 10^4.
